Laboratory results published in patent EP0494754A1, “3-hydroxypyridin-4-one derivatives as pharmaceutical compositions” (BRITISH TECHNOLOGY GROUP LTD, priority 1991, dated 1992).

Columns and labels:
Format in all cases: cell-based
[1] = system: P. falciparum; experiment: Inhibition of growth of P. falciparum in red cell culture (tritiated hypoxanthine uptake, continuous exposure to chelator)
Description: (A) An uncloned strain of P. falciparum, ITO4, was grown on blood group O red cells using a modification of the method described by Trager et al in Science, 1976, […], 673. An atmopshere consisting of 1% oxygen, 3% carbon dioxide and 96% nitrogen was maintained throughout the experiments. Red cells were suspended at a hematocrit of 3% in RPMI 1640 that had been supplemented with 10% v/v human serum, 2 g/l glucose, 4 mM NaOH, 25 µg/ml gentamicin, 1.9 mM glutamine and 25 mM HEPES to form complete medium. For experimental purposes the red cells were then further diluted with the same medium to a final hematocrit of 1.5%. Synchronised parasite cultures were obtained using a combination of sorbitol lysis and gelatin flotation, as described respectively by Jensen et al in Am. J. Trop. Med. Hyg., 1978, 27, 1274 and Lambros et al in J. Parasitol., 1979, 65, 418, thus ensuring that only young ring forms remained. The starting parasitemia in each experiment was between 0.1 and 0.5%.
A red cell suspension containing only recently synchronised ring parasites was treated with 0.2 µCi of tritiated hypoxanthine per 100 µl of red cell suspension and one of ten chelating agents as identified in the Table was added in complete medium to the suspension in an amount such as to produce an iron binding concentration of 100 µmol of iron per litre (all of the chelators combine with iron in a ratio of 3 moles of chelator:1 mole of iron apart from the chelator number 10, desferrioxamine, which combines in a 1:1 molar ratio). The test cultures were immediately dispersed in 200 µl aliquots into 96 well microculture plates. Each chelator was tested in three or more wells and the whole experiment was carried out at least twice for each chelator. Control cultures were used in each experiment which contained no iron chelator.
The growth of the P. falciparum parasites was assessed both by light microscopy examination of thin films that had been stained with Giemsa and through measurement of tritiated hypoxanthine uptake, the cell cultures being harvested onto glass fibre filters and radioactivity, in terms of beta emission from each well, being measured in a flat bed liquid scintillation counter as described by Potter et al in Phys. Med. Biol., 1986, 31(4), 361.
The chelators tested consisted of 1-(2′-carboxyethyl)-3-hydroxy-2-methylpyridin-4-one (R₁ = CH₂CH₂CO₂H, R₂ = CH₃, R₃ = R₄ = H; compound 1) and, for the purposes of comparison with this chelator, nine other chelators not of formula (I) as defined hereinbefore, of which compounds 2 to 9 are 3-hydroxypyridin-4-ones and compound 10 is desferrioxamine. […] These findings were supported by a morphological examination of red cells sampled from the cultures. […] (B) The effect of using different dosage levels than the 100 µmol/l level used in (A) was studied employing the same procedure but using four dosage levels of 10 µmol/l, 25 µmol/l, 50 µmol/l and […]. Only the eight chelators which produced an inhibitory effect at 100 µmol/l were studied and controls containing no iron chelator were again employed.

[2] = system: P. falciparum; experiment: Red cell reinvasion at the beginning of the second parasite cycle (light microscopy)
Description: A study was made of red cells from cultures involving various dosage levels harvested at the beginning of the second parasite cycle, when young rings could be identified in untreated control cultures in order to determine whether or not red cell reinvasion had occurred in the cultures that had been exposed to a chelator. […] However, for the 3-hydroxypyridin-4-one compounds 1 to 6 and 9, young ring parasites were frequently found after incubation at a 25 µmol/l dosage level of the chelator and were always found at a 10 µmol/l dosage level, no significant differences being seen between the different compounds. At 50 µmol/l and 100 µmol/l no evidence of reinvasion was found. Thus, although the 3-hydroxypyridin-4-ones do produce growth inhibition at the lower dosage levels of 10 µmol/l and 25 µmol/l, higher levels than this are required to produce a cytocidal action.

[3] = system: MEL cells, clone 585; experiment: Inhibition of growth of murine erythroleukaemia (MEL) cells, cell counting; conditions: 50 µmol/l iron binding concentration; after 30 hours; Figure 2
Description: MEL cells, clone 585, were grown in suspension culture at 37°C in RPMI 1640 that had been supplemented with 13% v/v foetal calf serum, 25 µl/ml gentamicin, 1.9 mM glutamine and 2% diaminopurine as described by Peto et al in Br. J. Haematol., 1983, 54, 623. The cultures were maintained in an atmosphere containing 5% carbon dioxide and passaged every 3-4 days at a seeding concentration of 1-2 x 10⁴/ml to ensure that the cells were continually in logarithmic growth phase. Under these conditions, the doubling time for cell growth was 30-36 hours.
10 ml volumes of cell suspension were incubated in 50 ml flasks with each of the ten chelators identified in the Table at a 50 µmol/l iron binding concentration, controls being employed which contained no chelator. 400 µl aliquots were removed in duplicate for growth assessment at 24 hour intervals over the next four days. The experiment was repeated on three separate occasions, the initial cell concentration in each case being 2-3 x 10⁴ cells/ml. Cell growth was assessed both by examination of cultures using light microscopy and by cell counting. At various times throughout each experiment, 400 µl culture was added to 19.6 ml Isoton and the number of particles counted using a Coulter Counter ZN set at threshold 20 and attenuation 0.4
The effect of the different chelators on growth of the MEL cells after 30 hours was compared with the effect produced after a similar time by the same chelators at a 50 µmol/l iron binding concentration using the procedure described in Example 2(A). The results are illustrated in Figure 2. It will be seen that the compounds 2, 3, 4, 5, 6, 9 and 10 inhibited growth of MEL cells and of P. falciparum, the minimum growth inhibition being 80% and 70% respectively. […] When these two groups of chelators were examined together a close linear correlation (r = 0.978) was found between the degree of growth inhibition produced in both types of cell for each chelator studied. The compound 1 was distinguished from all of the other chelators in being the only one to have no significant inhibitory effect on the growth of MEL cells (<10%) whilst at the same time producing a substantial inhibitory effect on the growth of P. falciparum (>75%).

CC(=O)N(O)CCCCCNC(=O)CCC(=O)N(O)CCCCCNC(=O)CCC(=O)N(O)CCCCCN [compound 10, Desferrioxamine]
growth inhibition of P. falciparum ([1]; 50 µmol/l iron binding concentration, after 30 hours, Figure 2): ≥ 70% | IC50 ([1]; Plasmodium falciparum, four dosage levels (iron binding concentration), same procedure as (A), read-out: ID50 (the source's name)): 10 to 20 µM | percentage inhibition of growth after 30 hours as compared with the controls ([1]; iron binding concentration of 100 µmol of iron per litre, 30 hours, Figure 1): more than 65% | red cell reinvasion (young ring parasites) ([2]; 10 µmol/l dosage level): always found | red cell reinvasion (young ring parasites) ([2]; 25 µmol/l dosage level): No evidence was found of reinvasion | red cell reinvasion (young ring parasites) ([2]; 50 µmol/l dosage level): No evidence was found of reinvasion | red cell reinvasion (young ring parasites) ([2]; 100 µmol/l dosage level): No evidence was found of reinvasion | growth inhibition of MEL cells [3]: ≥ 80%
